Assay results: patent publication US20040229772A1, “Peptides responsive to antibodies against consensus peptide of the CS4-CFA/I family proteins” (priority 1996, published 2004)
No end group written: not given here.

What was measured:
[1] = system: antibodies raised to the consensus peptide; experiment: ELISA of 8-mer peptides with rabbit antibodies; type: binding; settings: for interaction of peptides with the antibodies raised to the consensus peptide: rabbit antibodies raised to consensus peptide SEQ ID NO:1; for reactivity of 8-mer peptides with antibodies from the rabbits: rabbit antibodies raised to consensus peptide SEQ ID NO:1, biotin-SGSG-peptide on streptavidin
Method: (§1) Blocks of pins for cleavable syntheses were obtained from Chiron Mimotopes U.S. Peptide synthesis was carried out according to the manufacturer's instructions using Opfp-derivatized amino acids. Peptides of length 8 with 7 overlap were manufactured in order to locate all linear epitopes in the sequence with a highest redundancy. […] Peptides were cleaved from the pins using 0.1 M phosphate buffer, pH 8.0, containing 40% acetonitrile. Two peptides were made and sacrificed for amino acid analysis as proof of peptide purity. A dinitrophenol (DNP) pin was included so that the efficiency of the cleavage could be monitored spectrophotometrically.
(§2) For blocking, a composition containing 5% nonfat dry milk in PBS+0.2% sodium azide was used. Stock streptavidin (Calbiochem Corp., La Jolla, Calif.) at 1 mg/ml in water was kept frozen in aliquots for up to several months. On the day of use, the stock streptavidin was diluted in phosphate buffered saline (PBS) to provide a concentration of 5 μg/ml streptavidin. Goat F(ab′)2 anti-mouse, anti-rabbit and anti-human sera were labeled with alkaline phosphatase (Biosource, International, Camarillo, Calif.).
(§3) Streptavidin was plated at 5 μg/ml, 50 μl per well, and incubated over night at 4° C. Plates were then washed by hand (Nunc Immunowash 12 hand plate washer. Fisher Scientific, Pittsburgh, Pa.) three times with PBS/0.1% TWEEN 20™. Peptides were then diluted to 10 μg/ml in PBS and plated at 50-μl/well. After incubation for one hour at room temperature followed by washing, the peptides were incubated with sera diluted in blocker at appropriate concentrations (5% nonfat dry milk) for 2 hours at room temperature. After washing the wells, 50 μl of phosphatase-labeled anti-serum IgG diluted 1:1000 in blocker was added to each well and was allowed to incubate at room temperature for 1 hour. The plates were washed. The 100 μl of PNDP (p-nitrophenylphosphate) substrate, prepared according to the manufacturer's instructions, was added to each well. Results were read at 5, 15 and 60 minutes using a microtiter plate reader (UVmax™, Moelcular Devices, Sunnyvale, Calif.).
Antibodies from the rabbits were then tested against the specific 8-mer peptides obtained from SEQ ID NO:1 in the manner disclosed above to determine the binding sites of the antibodies in the sera with the consensus peptide.

Antibody to 0166 lower = experiment: ELISA of 8-mer peptides (pins) with rabbit serum; type: binding
Method: as §1, §2, §3
(§4) Partially to fully purified colonization factor (40% to 100% pure) was run on SDS-PAGE gel (5-15 μg/lane of 10 comb gel (precast 10 comb, 1 mm thickness, Tris-tricene gel from Novex, San Diego, Calif.), for primary immunization run 9 lanes for each rabbit (45-135 μg CF protein with ½ the amount used in the primary immunization used as a booster). The gel was stained with 0.5% COOMASSIE BLUE™ (BioRad, Richmond, Calif.) in water for 1 hour, then destained with multiple changes of water for 60-90 minutes. The colonization factor bands were excised with a scalpel and the excess gel trimmed. The bands were stored at −20° C. until use.
(§5) After removal from freezer, the gel slices were transferred to a glass tissue homogenizer using a teflon pestle with grooves at the tip. The slices were ground with 0.3 ml phosphate buffered saline (PBS). The drill was run to homogenize the gel for 30 to 45 seconds. (In the instant case, a pestle with a shaft of steel was used which allowed placement of the pestle into the chuck of the hand-held drill.)
(§6) The homogenate was transferred to 16 mm×150 mm test tubes with disposable plastic transfer pipet. The pestle and homogenizer vessel was rinsed repeatedly with PBS and the contents transferred to the 16×150 test tube until a volume of 1.2 ml was obtained.
(§7) The sample obtained above was placed in a vortex mixer and vortexed on high. Freund's adjuvant 1.2 ml was added. (Complete Freund's was used for the primary immunization, while incomplete Freund's was used for the boost.) The composition was vortexed until a thick emulsion of almost a butter consistency was obtained (12-20 minutes).
(§8) A preimmune serum was obtained on all animals, which were then immunized with the 1 ml of the emulsion subcutaneously at 4-6 spots on the shoulders and rump. The animals were boosted three weeks later, then bleed 10 days after the booster shots. […]

Antibody to 0166 upper = experiment: ELISA of 8-mer peptides (pins) with rabbit serum; type: binding
Method: as §1, §2, §3, §4, §5, §6, §7, §8

Antibody to CFA/I = experiment: ELISA of 8-mer peptides (pins) with rabbit serum; type: binding
Method: as §1, §2, §3, §4, §5, §6, §7, §8

Antibody to CS1 = experiment: ELISA of 8-mer peptides (pins) with rabbit serum; type: binding; settings: a listed pin number means recognized
Method: as §1, §2, §3, §4, §5, §6, §7, §8

Antibody to CS4 = experiment: ELISA of 8-mer peptides (pins) with rabbit serum; type: binding; settings: a listed pin number means recognized
Method: as §1, §2, §3, §4, §5, §6, §7, §8

Antibody to CS2 = experiment: ELISA of 8-mer peptides (pins) with rabbit serum; type: binding; settings: a listed pin number means recognized
Method: as §1, §2, §3, §4, §5, §6, §7, §8

0166 = experiment: Western blot of immune serum with denatured protein; type: binding, E. coli; settings: 4 strong reaction, rabbit serum
Method: (§9) Rabbits were bled, then immunized on day 0 with a composition containing 280 μg peptide/BSA conjugate in Freund's complete adjuvant. On day 21, the animals were boosted with 140 μg peptide/BSA conjugate in Freund's incomplete adjuvant. Blood was drawn on day 32. The interaction of antibodies raised against the specific antigens of the denatured proteins of the various strains was studied by comparing interaction of serum from the animals obtained on day 0 with response on to serum from the animals obtained on day 32 by Western blot. In all instances, the Western blot was negative for reaction with serum obtained on day 0. The Western blot data on interaction of immune serum collected on day 32 with the denatured proteins is given below with 0 being no reaction and 4 being a strong reaction:
(§10) Rabbits were given a composition containing 400 μg peptide of the formula: […] (SEQ ID NO:1) in complete Freund's adjuvant. The response was evaluated as in Example 2:
(§11) The same study was done comparing antibodies raised to denatured proteins of PCF 0166.
(§12) Effect of antibody raised to whole CS2 protein was studied in the manner of example 5.

CS17 = experiment: as above; type: binding, E. coli; settings: 4 strong reaction, rabbit serum
Method: as §9, §10, §11, §12

CS1 = experiment: as above; type: binding, E. coli; settings: 4 strong reaction, rabbit serum
Method: as §9, §10, §11, §12

CS4 = experiment: as above; type: binding, E. coli; settings: 4 strong reaction, rabbit serum
Method: as §9, §10, §11, §12

whole bacteria, CF CS1 = experiment: Agglutination of whole bacteria by serum of immunized rabbits; type: cell-based, E. coli; settings: two rabbits immunized per preparation
whole bacteria, CF CS2 = experiment: as above; type: cell-based, E. coli; settings: two rabbits immunized per preparation
whole bacteria, CF CS4 = experiment: as above; type: cell-based, E. coli; settings: two rabbits immunized per preparation
whole bacteria, CF CS17 = experiment: as above; type: cell-based, E. coli; settings: two rabbits immunized per preparation
whole bacteria, CF 0166 = experiment: as above; type: cell-based, E. coli; settings: two rabbits immunized per preparation
whole bacteria, CF CFA/1 = experiment: as above; type: cell-based, E. coli; settings: two rabbits immunized per preparation
CFA/I = experiment: Western blot of immune serum with denatured protein; type: binding, E. coli; settings: 4 strong reaction, rabbit serum
Method: as §9, §10, §11, §12

CS2 = experiment: as above; type: binding, E. coli; settings: 4 strong reaction, rabbit serum
Method: as §9, §10, §11, §12

[2] = rabbit 1082, a listed pin number means recognized
[3] = rabbit 1081, a listed pin number means recognized
[4] = rabbit 1079, a listed pin number means recognized

Row | Substance | interaction of peptides with the antibodies raised to the consensus peptide [1] | reactivity of 8-mer peptides with antibodies from the rabbits [1] | pins (8-aa peptide) recognized by serum (Antibody to 0166 lower; [2]) | pins (8-aa peptide) recognized by serum (Antibody to 0166 upper; [3]) | pins (8-aa peptide) recognized by serum (Antibody to CFA/I; [4]) | pins (8-aa peptide) recognized by serum (Antibody to CS1; Antibody to CS1, rabbit 1089) | pins (8-aa peptide) recognized by serum (Antibody to CS1; Antibody to CS1, rabbit 1090) | pins (8-aa peptide) recognized by serum (Antibody to CS4; Antibody to CS4, rabbit 938) | pins (8-aa peptide) recognized by serum (Antibody to CS4; Antibody to CS4, rabbit 940) | Western blot reaction of immune serum with denatured protein (0166; titer 1:50, 0 no reaction) | Western blot reaction of immune serum with denatured protein (0166; titer 1:500, 0 no reaction) | Western blot reaction of immune serum with denatured protein (CS17; titer 1:50, 0 no reaction) | Western blot reaction of immune serum with denatured protein (CS17; titer 1:500, 0 no reaction) | Western blot reaction of immune serum with denatured protein (CS17; titer 1:5000, 0 no reaction) | Western blot reaction of immune serum with denatured protein (CS17; titer 1:50000, 0 no reaction) | Western blot reaction of immune serum with denatured protein (CS1; titer 1:50, 0 no reaction) | Western blot reaction of immune serum with denatured protein (CS1; titer 1:500, 0 no reaction) | Western blot reaction of immune serum with denatured protein (CS1; titer 1:5000, 0 no reaction) | Western blot reaction of immune serum with denatured protein (CS1; titer 1:50000, 0 no reaction) | Western blot reaction of immune serum with denatured protein (CS4; titer 1:50, 0 no reaction) | also measured
1 | PTIDLLQA (listed as Escherichia coli) [compound 13] | more reliably interactive | most reactive | 13 | 13 | 13 | 13 | 13 | 13 | 13 |  |  |  |  |  |  |  |  |  |  |  | pins (8-aa peptide) recognized by serum (Antibody to 0166 lower; rabbit 1083, a listed pin number means recognized): 13; pins (8-aa peptide) recognized by serum (Antibody to 0166 upper; rabbit 934, a listed pin number means recognized): 13; pins (8-aa peptide) recognized by serum (Antibody to CFA/I; rabbit 1078, a listed pin number means recognized): 13
2 | VDPTIDLL (listed as Escherichia coli) [compound 11] | more reliably interactive | most reactive | 11 | 11 | 11 | 11 | 11 | 11 | 11 |  |  |  |  |  |  |  |  |  |  |  | pins (8-aa peptide) recognized by serum (Antibody to CS2; Antibody to CS2, rabbit 1076): 11; pins (8-aa peptide) recognized by serum (Antibody to CS2; Antibody to CS2, rabbit 1077): 11
3 | VEKNITVTASVDPTIDLLQADGSALPSAVALTYSPA (listed as Escherichia coli) [SEQ ID NO:1, 36 amino acid consensus peptide of the CS4-CFA/I family] |  |  |  |  |  |  |  |  |  | 4 | 2 | 2 | 0 | 0 | 0 | 4 | 4 | 2 | 1 | 2 | Western blot reaction of immune serum with denatured protein (CS4; titer 1:500, 0 no reaction): 0; Western blot reaction of immune serum with denatured protein (CS4; titer 1:5000, 0 no reaction): 0; Western blot reaction of immune serum with denatured protein (CS4; titer 1:50000, 0 no reaction): 0; agglutination of whole bacteria by serum (whole bacteria, CF CS1): 0/2; agglutination of whole bacteria by serum (whole bacteria, CF CS2): 0/2; agglutination of whole bacteria by serum (whole bacteria, CF CS4): 0/2; agglutination of whole bacteria by serum (whole bacteria, CF CS17): 0/2; agglutination of whole bacteria by serum (whole bacteria, CF 0166): 0/2; agglutination of whole bacteria by serum (whole bacteria, CF CFA/1): 0/2
4 | peptide/BSA conjugate: consensus peptide with added terminal cysteine (SEQ ID NO:37) conjugated to iodoacetylated bovine serum albumin (CVEKNITVTASVDPTIDLLQADGSALPSAVALTYSPA; also: conjugated via added terminal Cys to iodoacetylated BSA; listed as Escherichia coli) |  |  |  |  |  |  |  |  |  | 4 | 1 | 4 | 3 | 2 | 0.5 | 4 | 4 | 4 | 4 | 4 | Western blot reaction of immune serum with denatured protein (0166; titer 1:5000, 0 no reaction): 3; Western blot reaction of immune serum with denatured protein (CFA/I; titer 1:50, 0 no reaction): 4; Western blot reaction of immune serum with denatured protein (CFA/I; titer 1:500, 0 no reaction): 3; Western blot reaction of immune serum with denatured protein (CFA/I; titer 1:5000, 0 no reaction): 2; Western blot reaction of immune serum with denatured protein (CS2; titer 1:50, 0 no reaction): 4; Western blot reaction of immune serum with denatured protein (CS2; titer 1:500, 0 no reaction): 4; Western blot reaction of immune serum with denatured protein (CS2; titer 1:5000, 0 no reaction): 4; Western blot reaction of immune serum with denatured protein (CS4; titer 1:500, 0 no reaction): 4; Western blot reaction of immune serum with denatured protein (CS4; titer 1:5000, 0 no reaction): 3; Western blot reaction of immune serum with denatured protein (CS4; titer 1:50000, 0 no reaction): 2; agglutination of whole bacteria by serum (whole bacteria, CF CS1): 1/2; agglutination of whole bacteria by serum (whole bacteria, CF CS2): 2/2; agglutination of whole bacteria by serum (whole bacteria, CF CS4): 0/2; agglutination of whole bacteria by serum (whole bacteria, CF CS17): 0/2; agglutination of whole bacteria by serum (whole bacteria, CF 0166): 1/2; agglutination of whole bacteria by serum (whole bacteria, CF CFA/1): 1/2
